According to patent publication US20250034170A1, “SMALL MOLECULE MODULATORS OF GLUCOCEREBROSIDASE ACTIVITY AND USES THEREOF” (Vanqua Bio, Inc., priority 2021, published 2025):

target: T1, GCase (Homo sapiens, UniProt P04062); test: activation of GCase in a live cell PFB assay in HELA cells; format: cell-based; details: EC50 given as range classes
T1 construct: endogenous in cells; host or cells: HeLa cells
T1 sequence (P04062 40-536): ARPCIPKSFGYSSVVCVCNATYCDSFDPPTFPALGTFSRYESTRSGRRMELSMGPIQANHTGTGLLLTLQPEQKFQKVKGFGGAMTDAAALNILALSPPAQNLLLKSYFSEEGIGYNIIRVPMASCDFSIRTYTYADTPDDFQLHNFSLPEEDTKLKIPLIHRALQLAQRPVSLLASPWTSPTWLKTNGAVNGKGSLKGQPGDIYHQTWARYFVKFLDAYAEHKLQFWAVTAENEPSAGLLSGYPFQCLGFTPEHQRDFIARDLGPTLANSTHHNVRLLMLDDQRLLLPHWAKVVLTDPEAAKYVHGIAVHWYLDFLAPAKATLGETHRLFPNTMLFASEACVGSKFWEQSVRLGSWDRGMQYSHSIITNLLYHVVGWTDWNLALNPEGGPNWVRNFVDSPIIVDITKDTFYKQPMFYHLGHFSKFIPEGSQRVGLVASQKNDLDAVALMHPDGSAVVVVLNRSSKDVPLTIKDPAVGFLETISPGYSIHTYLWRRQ
Protocol: Exemplary compounds were evaluated for activation of GCase in a live cell PFB assay in HELA cells (essentially as described in Ysselstein et al., “LRRK2 kinase activity regulates lysosomal glucocerebrosidase in neurons derived from Parkinson's disease patients” Nature Communications (2019) 10:5570). […] EC50 ranges: A: <10 μM; B: >10-50 μM; C: >50-100 μM; D: >100 μM.

| SMILES | EC50 |
| --- | --- |
| FC(F)Cn1ncc2ncc(NC3CCC4(CCN(c5ccc(C(F)(F)F)nc5)CC4)C3)nc21 (stereo not drawn) [Cmpd 195] | 10 to 50 µM |
| FC(F)Cn1ncc2ncc(N[C@H]3CC[C@@]4(CCN(c5cc(C(F)(F)F)ccn5)C4)CC3)nc21 [Cmpd 197] | 10 to 50 µM |
| FC(F)Cn1ncc2ncc(NC3CCC4(CC3)CN(c3ccc(C(F)(F)F)nc3)C4)nc21 [Cmpd 200] | 10 to 50 µM |
| O=C1N(c2ccc(C(F)(F)F)cn2)CCC12CCN(c1cnc3cnn(CC(F)F)c3n1)C2 (stereo not drawn) [Cmpd 202] | 10 to 50 µM |
| O=C1N(c2cccc(C(F)(F)F)n2)CCC12CCN(c1cnc3cnn(CC(F)F)c3n1)C2 (stereo not drawn) [Cmpd 203] | 10 to 50 µM |
| O=C1N(c2cncc(C(F)(F)F)c2)CCC12CCN(c1cnc3cnn(CC(F)F)c3n1)C2 (stereo not drawn) [Cmpd 204] | 10 to 50 µM |
| FC(F)Cn1ncc2ncc(N3CCC4(CC3)CN(c3ccc(C(F)(F)F)nc3)CCO4)nc21 [Cmpd 205] | < 10 µM |
| FC(F)Cn1ncc2ncc(N3CCC4(CC3)CN(c3cncc(C(F)(F)F)c3)CCO4)nc21 [Cmpd 206] | < 10 µM |
| FC(F)Cn1ncc2ncc(N3CCC4(CC3)CN(c3cccc(C(F)(F)F)n3)CCO4)nc21 [Cmpd 208] | 10 to 50 µM |
| FC(F)Cn1ncc2ncc(N3CCCC4(CCN(c5cc(C(F)(F)F)ccn5)CC4)C3)nc21 [Cmpd 217] | 10 to 50 µM |
| FC(F)Cn1ncc2ncc(N3CCCC4(CCN(c5ccc(C(F)(F)F)cn5)CC4)C3)nc21 [Cmpd 218] | 10 to 50 µM |
| FC(F)Cn1ncc2ncc(N3CCCC4(CCN(c5cccc(C(F)(F)F)n5)CC4)C3)nc21 [Cmpd 219] | 10 to 50 µM |
| FC(F)Cn1ncc2ncc(N3CCCC4(CCN(c5ccc(C(F)(F)F)nc5)CC4)C3)nc21 [Cmpd 220] | < 10 µM |
| FC(F)Cn1ncc2ncc(N3CCCC4(CCN(c5cncc(C(F)(F)F)c5)CC4)C3)nc21 [Cmpd 221] | 10 to 50 µM |
| FC(F)Cn1ncc2ncc(N3CC4(CCN(c5ccnc(C(F)(F)F)c5)C4)C3)nc21 [Cmpd 222] | 10 to 50 µM |
| FC(F)Cn1ncc2ncc(N3CCC4(CN(c5ccnc(C(F)(F)F)c5)C4)C3)nc21 [Cmpd 223] | < 10 µM |
| FC(F)Cn1ncc2ncc(N3CCC4(CCCN(c5cc(C(F)(F)F)ccn5)C4)CC3)nc21 [Cmpd 224] | 10 to 50 µM |
| FC(F)Cn1ncc2ncc(N3CCC4(CC3)CC(Nc3cncc(C(F)(F)F)c3)C4)nc21 [Cmpd 228] | > 100 µM |
| FC(F)Cn1ncc2ncc(N3CCC4(CC3)CC(Nc3ccc(C(F)(F)F)nc3)C4)nc21 [Cmpd 230] | 10 to 50 µM |
| FC(F)Cn1ncc2ncc(N3CCC4(CC3)CC(Nc3cc(C(F)(F)F)ccn3)C4)nc21 [Cmpd 231] | 10 to 50 µM |
| FC(F)(F)c1ccc(N2CCC3(CCN(c4cncc(-c5nncs5)n4)CC3)C2)cn1 [Cmpd 233] | < 10 µM |

More lines, now with the values ahead:

| EC50 | SMILES |
| --- | --- |
| 10 to 50 µM | FC(F)Cn1ncc2ncc(NC3COC4(C3)CN(c3ccc(C(F)(F)F)nc3)C4)nc21 (stereo not drawn) [Cmpd 191] |
| < 10 µM | FC(F)Cn1ncc2ncc(NC3COC4(C3)CN(c3cc(C(F)(F)F)ccn3)C4)nc21 (stereo not drawn) [Cmpd 192] |
| 10 to 50 µM | FC(F)Cn1ncc2ncc(NC3CCC4(CCN(c5ccc(C(F)(F)F)nc5)C4)C3)nc21 (stereo not drawn) [Cmpd 193] |
| < 10 µM | FC(F)Cn1ncc2ncc(NC3CCC4(CCN(c5cc(C(F)(F)F)ccn5)C4)C3)nc21 (stereo not drawn) [Cmpd 194] |
| > 100 µM | FC(F)Cn1ncc2ncc(NC3CCC4(CCN(c5cc(C(F)(F)F)ccn5)CC4)C3)nc21 (stereo not drawn) [Cmpd 196] |
| 10 to 50 µM | FC(F)Cn1ncc2ncc(NC3CCC4(CC3)CN(c3ccc(C(F)(F)F)cn3)C4)nc21 [Cmpd 198] |
| < 10 µM | FC(F)Cn1ncc2ncc(NC3CCC4(CC3)CN(c3cncc(C(F)(F)F)c3)C4)nc21 [Cmpd 199] |
| 10 to 50 µM | O=C1N(c2ccc(C(F)(F)F)nc2)CCC12CCN(c1cnc3cnn(CC(F)F)c3n1)C2 (stereo not drawn) [Cmpd 201] |
| < 10 µM | FC(F)Cn1ncc2ncc(N3CCC4(CC3)CN(c3ccc(C(F)(F)F)cn3)CCO4)nc21 [Cmpd 207] |
| < 10 µM | FC(F)Cn1ncc2ncc(N3CCOC4(CCN(c5ccc(C(F)(F)F)nc5)CC4)C3)nc21 [Cmpd 209] |
| < 10 µM | FC(F)Cn1ncc2ncc(N3CCOC4(CCN(c5cncc(C(F)(F)F)c5)CC4)C3)nc21 [Cmpd 210] |
| 10 to 50 µM | FC(F)Cn1ncc2ncc(N3CCOC4(CCN(c5cccc(C(F)(F)F)n5)CC4)C3)nc21 [Cmpd 211] |
| 10 to 50 µM | FC(F)Cn1ncc2ncc(N3CCOC4(CCN(c5ccc(C(F)(F)F)cn5)CC4)C3)nc21 [Cmpd 212] |
| 10 to 50 µM | FC(F)Cn1ncc2ncc(N3CCC4(CCCN(c5ccc(C(F)(F)F)cn5)C4)CC3)nc21 [Cmpd 213] |
| 10 to 50 µM | FC(F)Cn1ncc2ncc(N3CCC4(CCCN(c5ccc(C(F)(F)F)nc5)C4)CC3)nc21 [Cmpd 214] |
| < 10 µM | FC(F)Cn1ncc2ncc(N3CCC4(CCCN(c5cncc(C(F)(F)F)c5)C4)CC3)nc21 [Cmpd 215] |
| 10 to 50 µM | FC(F)Cn1ncc2ncc(N3CCC4(CCCN(c5cccc(C(F)(F)F)n5)C4)CC3)nc21 [Cmpd 216] |
| < 10 µM | FC(F)Cn1ncc2ncc(N3CCC4(CCCN(c5ccnc(C(F)(F)F)c5)C4)CC3)nc21 [Cmpd 225] |
| > 100 µM | FC(F)Cn1ncc2ncc(N3CCCC4(CCN(c5ccnc(C(F)(F)F)c5)CC4)C3)nc21 [Cmpd 226] |
| 10 to 50 µM | FC(F)Cn1ncc2ncc(N3CCC4(CC3)CC(Nc3ccc(C(F)(F)F)cn3)C4)nc21 [Cmpd 227] |
| 10 to 50 µM | FC(F)Cn1ncc2ncc(N3CCC4(CC3)CC(Nc3ccnc(C(F)(F)F)c3)C4)nc21 [Cmpd 229] |
| 10 to 50 µM | FC(F)Cn1ncc2ncc(N3CCC4(CC3)CC(Nc3cccc(C(F)(F)F)n3)C4)nc21 [Cmpd 232] |

same assay, conditions: activation of GCase, EC50 ranges

| SMILES | EC50 |
| --- | --- |
| FC(F)(F)c1ccc(N2CCC3(CCN(c4cncc(-c5nncs5)n4)CC3)C2)nc1 [Cmpd 234] | 10 to 50 µM |
| FC(F)(F)c1ccc(N2CCC3(CCN(c4cncc(N5CCCC5)n4)CC3)C2)cn1 [Cmpd 248] | < 10 µM |
| FC(F)(F)c1ccc(N2CCC3(CCN(c4cncc(N5CCOCC5)n4)CC3)C2)cn1 [Cmpd 249] | 10 to 50 µM |
| FC(F)(F)c1ccc(N2CCC3(CCN(c4cncc(-c5ccccc5)n4)CC3)C2)cn1 [Cmpd 251] | < 10 µM |
| FC(F)(F)c1ccc(N2CCC3(CCN(c4cncc(-n5cncn5)n4)CC3)C2)cn1 [Cmpd 253] | < 10 µM |
| CC(C)Oc1cncc(N2CCC3(CCN(c4ccc(C(F)(F)F)nc4)C3)CC2)n1 [Cmpd 254] | 10 to 50 µM |
| FC(F)(F)c1ccc(N2CCC3(CCN(c4cncc(N5CCCCC5)n4)CC3)C2)cn1 [Cmpd 256] | < 10 µM |
| Cc1nn(CC(F)F)c2nc(N3CCC4(CCN(c5ccc(C(F)(F)F)nc5)C4)CC3)cnc12 [Cmpd 257] | < 10 µM |
| Cc1nn(CC(F)F)c2nc(N3CCC4(CC3)CC(=O)N(c3ccc(C(F)(F)F)nc3)C4)cnc12 [Cmpd 258] | < 10 µM |

Now from value to molecule:

| EC50 | SMILES |
| --- | --- |
| 10 to 50 µM | C[C@H]1CN(c2cnc3cnn(CC(F)F)c3n2)CC[C@@]12CCN(c1cccc(C(F)(F)F)n1)C2=O (racemic) [Cmpd 669] |
| 50 to 100 µM | FC(F)(F)c1cncc(N2CCC3(CCN(c4cncc(-c5nncs5)n4)CC3)C2)c1 [Cmpd 235] |
| < 10 µM | O=C1CC2(CCN(c3cncc(-c4nncs4)n3)CC2)CN1c1ccc(C(F)(F)F)nc1 [Cmpd 236] |
| 10 to 50 µM | O=C1CC2(CCN(c3cncc(-c4nncs4)n3)CC2)CN1c1cncc(C(F)(F)F)c1 [Cmpd 237] |
| 10 to 50 µM | FC(F)(F)c1ccc(N2CCC3(CCN(c4cncc(-n5ccnc5)n4)CC3)C2)cn1 [Cmpd 238] |
| < 10 µM | FC(F)(F)c1ccc(N2CCC3(CCN(c4cncc(-n5cccn5)n4)CC3)C2)cn1 [Cmpd 239] |
| 50 to 100 µM | FC(F)(F)c1ccc(N2CCC3(CCN(c4nccn5cncc45)CC3)C2)cn1 [Cmpd 240] |
| 10 to 50 µM | O=C1N(c2cc(C(F)(F)F)ccn2)CCC12CCN(c1cncc(-n3cccn3)n1)CC2 [Cmpd 241] |
| 10 to 50 µM | O=C1N(c2cc(C(F)(F)F)ccn2)CCC12CCN(c1cncc(-n3ccnc3)n1)CC2 [Cmpd 242] |
| < 10 µM | FC(F)(F)COc1cncc(N2CCC3(CCN(c4ccc(C(F)(F)F)nc4)C3)CC2)n1 [Cmpd 243] |
| 10 to 50 µM | O=C1N(c2cc(C(F)(F)F)ccn2)CCC12CCN(c1cncc(OCC(F)(F)F)n1)CC2 [Cmpd 244] |
| 10 to 50 µM | O=C1N(c2cc(C(F)(F)F)ccn2)CCC12CCN(c1cncc(N3CCCC3)n1)CC2 [Cmpd 245] |
| 10 to 50 µM | O=C1N(c2cc(C(F)(F)F)ccn2)CCC12CCN(c1cncc(N3CCOCC3)n1)CC2 [Cmpd 246] |
| < 10 µM | O=C1N(c2ccc(C(F)(F)F)nc2)CC(c2ccccc2)C12CCN(c1cnc3cnn(CC(F)F)c3n1)CC2 (stereo not drawn) [Cmpd 247] |
| 10 to 50 µM | Cc1nccn1-c1cncc(N2CCC3(CCN(c4ccc(C(F)(F)F)nc4)C3)CC2)n1 [Cmpd 250] |
| 10 to 50 µM | FC(F)(F)c1ccc(N2CCC3(CCN(c4cncc(-c5ncccn5)n4)CC3)C2)cn1 [Cmpd 252] |
| < 10 µM | FC(F)(F)c1ccc(N2CCC3(CCN(c4cncc(C(F)(F)F)n4)CC3)C2)cn1 [Cmpd 255] |
| 10 to 50 µM | FC(F)Cn1ncc2ncc(N3CCC4(CC3)CN(c3cc(C(F)(F)F)ccn3)c3ccccc34)nc21 [Cmpd 259] |
| < 10 µM | Cc1nn(CC(F)F)c2nc(N3CCC4(CC3)CCN(c3ccc(C(F)(F)F)nc3)C4=O)cnc12 [Cmpd 260] |
| 10 to 50 µM | O=C1N(c2ccc(C(F)(F)F)nc2)c2ccccc2C12CCN(c1cnc3cnn(CC(F)F)c3n1)CC2 [Cmpd 261] |
